In patent publication US20260297085A1, “1 H-PYRROLO[2,3-B]PYRIDIN-4-YL]-2-OXOPYRROLIDINE-3-CARBONITRILE DERIVATIVES AS TYROSINE KINASE 2 (TYK2) INHIBITORS FOR THE TREATMENT OF INFLAMMATORY DISEASES” (BIOGEN MA INC., priority 2023, published 2026):
Counter-ions that a name gives are not always drawn.

What was measured:
[1] = molecular target: T1, human TYK2 kinase domain (JH1) (Homo sapiens, UniProt P29597); assay: JH1 biochemical assay for TYK2 (ADP-Glo kinase assay, recombinant JH1 catalytic domain, JAK3-974 peptide, 10 μM ATP); conditions: JH1 kinase domain, ADP-Glo
T1 construct: recombinantly generated catalytic kinase (also known as JH1) domain of human JAK1, JAK2, JAK3 and TYK2
T1 sequence (P29597 897-1176 limits assumed): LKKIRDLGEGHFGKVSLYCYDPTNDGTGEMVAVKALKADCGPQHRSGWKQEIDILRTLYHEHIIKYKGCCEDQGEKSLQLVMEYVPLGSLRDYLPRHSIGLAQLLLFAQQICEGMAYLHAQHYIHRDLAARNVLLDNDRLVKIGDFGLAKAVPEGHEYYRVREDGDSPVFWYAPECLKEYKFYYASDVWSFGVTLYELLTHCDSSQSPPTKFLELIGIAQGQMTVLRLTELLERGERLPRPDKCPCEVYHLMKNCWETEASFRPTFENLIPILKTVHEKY
Method in brief: (§1)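 Reactions contain 50 μM peptide and run 100 minutes, with enzyme at 4, 0.2, 0.3 and 2 nM for JAK1, JAK2, JAK3 and TYK2. Generated ADP is read by luminescence; IC50 derives from normalized dose-response curves.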

[2] = molecular target: T2, human JAK3 kinase domain (JH1) (Homo sapiens, UniProt P52333); assay: JH1 biochemical assay for JAK3 (ADP-Glo kinase assay, recombinant JH1 catalytic domain, JAK3-974 peptide, 4 μM ATP); conditions: JH1 kinase domain, ADP-Glo
T2 construct: recombinantly generated catalytic kinase (also known as JH1) domain of human JAK1, JAK2, JAK3 and TYK2
T2 sequence (P52333 822-1111 limits assumed): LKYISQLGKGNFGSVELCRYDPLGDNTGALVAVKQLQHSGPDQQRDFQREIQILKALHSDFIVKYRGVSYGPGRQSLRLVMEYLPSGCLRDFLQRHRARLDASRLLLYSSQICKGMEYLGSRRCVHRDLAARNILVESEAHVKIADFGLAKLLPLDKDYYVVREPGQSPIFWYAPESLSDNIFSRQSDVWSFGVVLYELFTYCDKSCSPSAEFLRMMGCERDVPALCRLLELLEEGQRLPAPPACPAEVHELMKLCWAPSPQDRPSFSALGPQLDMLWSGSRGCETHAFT
Method in brief: as §1

[3] = molecular target: JAK2 kinase activity on STAT5 in TF1 cells (Homo sapiens, UniProt O60674); assay: pSTAT5 cell assay (MSD; TF1 cells, 30 ng/mL IL-3 stimulation); format: cell-based; conditions: 30 ng/mL IL-3, 15 minutes
Sequence of JAK2 kinase activity on STAT5 in TF1 cells (O60674 whole entry): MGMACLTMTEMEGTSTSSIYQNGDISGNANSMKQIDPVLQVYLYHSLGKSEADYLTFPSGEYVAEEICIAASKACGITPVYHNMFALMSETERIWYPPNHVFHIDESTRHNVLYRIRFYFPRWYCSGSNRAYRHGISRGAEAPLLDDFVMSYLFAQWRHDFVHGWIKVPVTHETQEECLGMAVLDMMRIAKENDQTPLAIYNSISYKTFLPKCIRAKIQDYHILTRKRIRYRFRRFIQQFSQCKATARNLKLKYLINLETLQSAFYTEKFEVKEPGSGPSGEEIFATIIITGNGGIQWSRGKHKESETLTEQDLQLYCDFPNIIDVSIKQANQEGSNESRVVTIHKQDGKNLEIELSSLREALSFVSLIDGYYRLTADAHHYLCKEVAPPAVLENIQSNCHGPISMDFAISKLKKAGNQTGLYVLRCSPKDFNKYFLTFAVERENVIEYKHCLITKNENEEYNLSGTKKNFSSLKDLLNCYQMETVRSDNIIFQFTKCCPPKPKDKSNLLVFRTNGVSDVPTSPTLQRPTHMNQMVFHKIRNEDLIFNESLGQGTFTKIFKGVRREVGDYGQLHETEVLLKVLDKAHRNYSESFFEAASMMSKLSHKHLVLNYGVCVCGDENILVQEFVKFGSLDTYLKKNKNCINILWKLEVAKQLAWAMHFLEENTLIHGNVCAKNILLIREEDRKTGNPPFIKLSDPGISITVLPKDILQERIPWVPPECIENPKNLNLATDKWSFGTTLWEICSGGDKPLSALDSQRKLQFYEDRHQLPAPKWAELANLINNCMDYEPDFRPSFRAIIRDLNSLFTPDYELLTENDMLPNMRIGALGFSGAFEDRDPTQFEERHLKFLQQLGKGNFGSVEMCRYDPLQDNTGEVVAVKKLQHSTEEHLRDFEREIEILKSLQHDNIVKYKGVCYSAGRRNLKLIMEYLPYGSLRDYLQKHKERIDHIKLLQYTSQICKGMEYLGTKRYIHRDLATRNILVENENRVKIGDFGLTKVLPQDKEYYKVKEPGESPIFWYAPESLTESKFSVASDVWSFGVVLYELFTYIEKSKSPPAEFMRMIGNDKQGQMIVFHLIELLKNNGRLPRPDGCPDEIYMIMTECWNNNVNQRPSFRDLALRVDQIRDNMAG
Method in brief: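 IC50 from a 4-parameter logistic fit of normalized pSTAT5 signal, measured by MSD in lysates of TF1 cells. Cells were serum-starved, exposed to compound for 1 h (top concentration 10 μM, four-fold, 10 points), then given IL-3 at 30 ng/mL for 15 min.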

[4] = molecular target: T3, human JAK1 kinase domain (JH1) (Homo sapiens, UniProt P23458); assay: JH1 biochemical assay for JAK1 (ADP-Glo kinase assay, recombinant JH1 catalytic domain, JAK3-342 peptide, 35 μM ATP); conditions: JH1 kinase domain, ADP-Glo
T3 construct: recombinantly generated catalytic kinase (also known as JH1) domain of human JAK1, JAK2, JAK3 and TYK2
T3 sequence (P23458 875-1153 limits assumed): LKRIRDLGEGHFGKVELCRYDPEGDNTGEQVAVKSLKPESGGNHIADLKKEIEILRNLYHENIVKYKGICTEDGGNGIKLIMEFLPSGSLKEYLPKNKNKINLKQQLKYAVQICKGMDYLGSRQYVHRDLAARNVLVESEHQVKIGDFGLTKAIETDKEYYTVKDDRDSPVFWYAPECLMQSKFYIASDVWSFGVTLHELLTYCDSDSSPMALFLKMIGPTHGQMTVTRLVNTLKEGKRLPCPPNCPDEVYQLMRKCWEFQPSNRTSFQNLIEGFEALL
Method in brief: as §1

[5] = molecular target: T4, human JAK2 kinase domain (JH1) (Homo sapiens, UniProt O60674); assay: JH1 biochemical assay for JAK2 (ADP-Glo kinase assay, recombinant JH1 catalytic domain, JAK3-974 peptide, 15 μM ATP); conditions: JH1 kinase domain, ADP-Glo
T4 construct: recombinantly generated catalytic kinase (also known as JH1) domain of human JAK1, JAK2, JAK3 and TYK2
T4 sequence (O60674 849-1124 limits assumed): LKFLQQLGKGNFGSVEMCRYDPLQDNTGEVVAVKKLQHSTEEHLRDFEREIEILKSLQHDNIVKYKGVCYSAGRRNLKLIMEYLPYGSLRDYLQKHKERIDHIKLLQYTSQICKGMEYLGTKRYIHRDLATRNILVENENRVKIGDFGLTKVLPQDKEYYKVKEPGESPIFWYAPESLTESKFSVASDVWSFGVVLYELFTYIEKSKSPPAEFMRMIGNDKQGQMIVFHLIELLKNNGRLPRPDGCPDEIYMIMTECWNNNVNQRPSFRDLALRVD
Method in brief: as §1

[6] = molecular target: JAK1 kinase activity on STAT3 in TF1 cells (Homo sapiens, UniProt P23458); assay: pSTAT3 cell assay (MSD; TF1 cells, 30 ng/mL IL-6 stimulation); format: cell-based; conditions: 30 ng/mL IL-6, 15 minutes
Sequence of JAK1 kinase activity on STAT3 in TF1 cells (P23458 whole entry): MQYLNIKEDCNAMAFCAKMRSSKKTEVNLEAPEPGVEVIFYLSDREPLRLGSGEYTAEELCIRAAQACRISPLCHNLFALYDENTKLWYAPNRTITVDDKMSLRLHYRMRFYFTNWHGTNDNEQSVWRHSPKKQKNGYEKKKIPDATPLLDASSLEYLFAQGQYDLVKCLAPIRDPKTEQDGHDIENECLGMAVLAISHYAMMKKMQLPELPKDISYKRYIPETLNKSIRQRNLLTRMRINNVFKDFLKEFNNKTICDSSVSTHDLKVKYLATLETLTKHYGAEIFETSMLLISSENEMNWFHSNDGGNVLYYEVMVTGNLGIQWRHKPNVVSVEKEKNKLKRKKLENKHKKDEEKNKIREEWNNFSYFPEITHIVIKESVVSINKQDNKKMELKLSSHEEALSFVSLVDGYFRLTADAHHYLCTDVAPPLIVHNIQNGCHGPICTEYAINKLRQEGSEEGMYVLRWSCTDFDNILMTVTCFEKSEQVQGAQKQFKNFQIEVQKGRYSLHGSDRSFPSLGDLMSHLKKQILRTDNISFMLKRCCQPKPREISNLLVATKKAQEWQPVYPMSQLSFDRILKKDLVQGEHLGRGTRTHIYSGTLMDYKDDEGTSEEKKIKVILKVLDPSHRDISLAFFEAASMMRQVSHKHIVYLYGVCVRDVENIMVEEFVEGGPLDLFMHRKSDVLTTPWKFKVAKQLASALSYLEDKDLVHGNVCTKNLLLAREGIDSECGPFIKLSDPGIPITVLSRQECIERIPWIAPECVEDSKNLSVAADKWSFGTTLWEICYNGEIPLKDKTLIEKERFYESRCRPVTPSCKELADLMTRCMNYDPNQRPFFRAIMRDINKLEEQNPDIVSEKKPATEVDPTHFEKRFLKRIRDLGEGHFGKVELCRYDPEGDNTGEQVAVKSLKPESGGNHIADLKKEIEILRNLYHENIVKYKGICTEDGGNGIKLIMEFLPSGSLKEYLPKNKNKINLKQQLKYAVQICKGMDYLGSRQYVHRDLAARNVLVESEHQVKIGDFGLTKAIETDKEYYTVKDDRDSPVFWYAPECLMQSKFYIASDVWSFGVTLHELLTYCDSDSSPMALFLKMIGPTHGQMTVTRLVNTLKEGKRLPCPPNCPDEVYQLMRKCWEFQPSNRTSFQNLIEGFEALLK
Method in brief: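 IC50 values derive from 4-parameter logistic fits of normalized pSTAT3 signal, measured by MSD with anti-STAT3 antibodies. TF1 cells, serum-starved beforehand, received compound for 1 hour (top concentration 10 μM, four-fold steps, 10 points) before a 15-minute IL-6 (30 ng/mL) stimulus.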

[7] = molecular target: Tyk2 kinase activity on STAT4 in NK92 cells (Homo sapiens, UniProt P29597); assay: pSTAT4 cell assay (MSD; NK92 cells, 30 ng/mL IL2 stimulation); format: cell-based; conditions: 30 ng/mL IL2, 15 minutes
Sequence of Tyk2 kinase activity on STAT4 in NK92 cells (P29597 whole entry): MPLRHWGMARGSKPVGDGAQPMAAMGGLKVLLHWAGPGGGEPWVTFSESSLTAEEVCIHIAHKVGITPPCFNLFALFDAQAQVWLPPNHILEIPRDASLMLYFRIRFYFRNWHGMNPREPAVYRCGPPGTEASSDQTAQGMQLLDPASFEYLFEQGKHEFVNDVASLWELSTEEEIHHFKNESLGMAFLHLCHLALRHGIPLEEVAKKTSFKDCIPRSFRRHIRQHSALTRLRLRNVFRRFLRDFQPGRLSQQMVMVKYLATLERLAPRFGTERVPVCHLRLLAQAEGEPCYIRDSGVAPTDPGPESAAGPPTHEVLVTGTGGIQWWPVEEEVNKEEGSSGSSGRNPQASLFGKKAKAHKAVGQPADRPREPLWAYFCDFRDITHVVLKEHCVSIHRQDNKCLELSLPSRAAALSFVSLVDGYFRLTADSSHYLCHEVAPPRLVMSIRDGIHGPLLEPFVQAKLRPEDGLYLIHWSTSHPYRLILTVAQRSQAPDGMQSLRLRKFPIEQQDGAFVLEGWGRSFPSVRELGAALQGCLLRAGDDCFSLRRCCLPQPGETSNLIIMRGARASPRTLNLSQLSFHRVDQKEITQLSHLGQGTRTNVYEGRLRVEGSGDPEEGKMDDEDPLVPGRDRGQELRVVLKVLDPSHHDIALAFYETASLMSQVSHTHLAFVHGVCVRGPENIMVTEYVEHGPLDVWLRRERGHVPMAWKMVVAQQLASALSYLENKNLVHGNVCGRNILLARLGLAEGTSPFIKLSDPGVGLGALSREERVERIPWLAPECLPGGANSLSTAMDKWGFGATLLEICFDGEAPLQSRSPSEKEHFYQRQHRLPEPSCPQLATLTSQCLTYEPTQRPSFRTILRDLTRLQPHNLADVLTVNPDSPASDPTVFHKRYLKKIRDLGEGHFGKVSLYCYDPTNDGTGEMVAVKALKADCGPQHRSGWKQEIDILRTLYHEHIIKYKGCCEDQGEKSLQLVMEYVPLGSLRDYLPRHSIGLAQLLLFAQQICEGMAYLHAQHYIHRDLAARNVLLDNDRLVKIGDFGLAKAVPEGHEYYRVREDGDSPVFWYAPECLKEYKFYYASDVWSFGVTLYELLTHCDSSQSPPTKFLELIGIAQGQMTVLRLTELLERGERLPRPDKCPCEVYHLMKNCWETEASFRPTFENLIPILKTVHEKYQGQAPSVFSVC
Method in brief: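 Read-out: phospho-STAT in NK92 lysates, MSD format, anti-STAT4 antibodies. Cells were serum-starved, given compound for 1 hr (10 μM top, four-fold, 10 points) and IL2-stimulated (30 ng/mL, 15 min). Normalized percent activity vs log concentration, 4-parameter logistic fit gave IC50.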

Structure (SMILES) | IC50 [1] | IC50 [2] | IC50 [3] | IC50 [4] | IC50 [5] | IC50 [6] | IC50 [7]
CCc1ccc(-c2cc3c(N4C[C@@H](C)[C@@](C#N)(C5CC5)C4=O)ccnn3c2)cn1 [Example 174, (3R,4S)-3-cyclopropyl-1-(6-(6-ethylpyridin-3-yl)pyrrolo[1,2-b]pyridazin-4-yl)-4-methyl-2-oxopyrrolidine-3-carbonitrile trifluoroacetate] | 5 to 20 nM | 100 to 1000 nM | 5000 to 10000 nM | 100 to 1000 nM | 100 to 1000 nM | 1000 to 5000 nM | 50 to 100 nM
C[C@@H]1CN(c2ccnn3cc(-c4ccc(OC(F)F)nc4)cc23)C(=O)[C@]1(C#N)C1CC1 [Example 176, (3R,4S)-3-cyclopropyl-1-(6-(6-(difluoromethoxy)pyridin-3-yl)pyrrolo[1,2-b]pyridazin-4-yl)-4-methyl-2-oxopyrrolidine-3-carbonitrile] | 5 to 20 nM | 100 to 1000 nM | > 10000 nM | 100 to 1000 nM | 1000 to 5000 nM | 5000 to 10000 nM | > 100 nM
C[C@@H]1CN(c2ncnn3cc(-c4cnn(C)c4)cc23)C(=O)[C@]1(C#N)C1CC1 [Example 180, (3R,4S)-3-cyclopropyl-4-methyl-1-(6-(1-methyl-1H-pyrazol-4-yl)pyrrolo[2,1-f][1,2,4]triazin-4-yl)-2-oxopyrrolidine-3-carbonitrile] | > 100 nM | > 10000 nM | 5000 to 10000 nM | > 10000 nM | 5000 to 10000 nM | 1000 to 5000 nM | > 100 nM
C[C@@H]1CN(c2nc(-c3cnn(C)c3)cn3nccc23)C(=O)[C@]1(C#N)C1CC1 [Example 184, (3R,4S)-3-cyclopropyl-4-methyl-1-(6-(1-methyl-1H-pyrazol-4-yl)pyrazolo[1,5-a]pyrazin-4-yl)-2-oxopyrrolidine-3-carbonitrile] | < 5 nM | < 100 nM | 100 to 1000 nM | < 100 nM | < 100 nM | 100 to 1000 nM | 20 to 50 nM
C[C@@H]1CN(c2nc(-c3cnn(C(F)F)c3)cn3nccc23)C(=O)[C@]1(C#N)C1CC1 [Example 185, (3R,4S)-3-cyclopropyl-1-(6-(1-(difluoromethyl)-1H-pyrazol-4-yl)pyrazolo[1,5-a]pyrazin-4-yl)-4-methyl-2-oxopyrrolidine-3-carbonitrile] | < 5 nM | < 100 nM | 100 to 1000 nM | < 100 nM | < 100 nM | 100 to 1000 nM | 20 to 50 nM
Cc1cnn2cc(-c3cnn(C)c3)nc(N3C[C@@H](C)[C@@](C#N)(C4CC4)C3=O)c12 [Example 186, (3R,4S)-3-cyclopropyl-4-methyl-1-(3-methyl-6-(1-methyl-1H-pyrazol-4-yl)pyrazolo[1,5-a]pyrazin-4-yl)-2-oxopyrrolidine-3-carbonitrile] | 50 to 100 nM | 100 to 1000 nM | > 10000 nM | 1000 to 5000 nM | 1000 to 5000 nM | > 10000 nM | > 100 nM
CCn1cc(-c2cn3ncc(F)c3c(N3C[C@@H](C)[C@@](C#N)(C4CC4)C3=O)n2)cn1 [Example 188, (3R,4S)-3-cyclopropyl-1-(6-(1-ethyl-1H-pyrazol-4-yl)-3-fluoropyrazolo[1,5-a]pyrazin-4-yl)-4-methyl-2-oxopyrrolidine-3-carbonitrile] | < 5 nM | < 100 nM | 1000 to 5000 nM | < 100 nM | < 100 nM | 100 to 1000 nM | 20 to 50 nM
CC(C)n1cc(-c2cn3ncc(F)c3c(N3C[C@@H](C)[C@@](C#N)(C4CC4)C3=O)n2)cn1 [Example 190, (3R,4S)-3-cyclopropyl-1-(3-fluoro-6-(1-isopropyl-1H-pyrazol-4-yl)pyrazolo[1,5-a]pyrazin-4-yl)-4-methyl-2-oxopyrrolidine-3-carbonitrile] | < 5 nM | < 100 nM | 1000 to 5000 nM | < 100 nM | < 100 nM | 100 to 1000 nM | 20 to 50 nM

More lines, now with the values ahead:

IC50 [1] | IC50 [2] | IC50 [3] | IC50 [4] | IC50 [5] | IC50 [6] | IC50 [7] | Structure (SMILES)
5 to 20 nM | 100 to 1000 nM | > 10000 nM | 100 to 1000 nM | 100 to 1000 nM | 5000 to 10000 nM | > 100 nM | C[C@@H]1CN(c2ccnn3cc(-c4cnn5c4CCC5)cc23)C(=O)[C@]1(C#N)C1CC1 [Example 171, (3R,4S)-3-cyclopropyl-1-(6-(5,6-dihydro-4H-pyrrolo[1,2-b]pyrazol-3-yl)pyrrolo[1,2-b]pyridazin-4-yl)-4-methyl-2-oxopyrrolidine-3-carbonitrile]
< 5 nM | 100 to 1000 nM | 5000 to 10000 nM | 100 to 1000 nM | 100 to 1000 nM | 1000 to 5000 nM | > 100 nM | CCOCCn1cc(-c2cc3c(N4C[C@@H](C)[C@@](C#N)(C5CC5)C4=O)ccnn3c2)cn1 [Example 172, (3R,4S)-3-cyclopropyl-1-(6-(1-(2-ethoxyethyl)-1H-pyrazol-4-yl)pyrrolo[1,2-b]pyridazin-4-yl)-4-methyl-2-oxopyrrolidine-3-carbonitrile]
5 to 20 nM | 100 to 1000 nM | 5000 to 10000 nM | 100 to 1000 nM | 100 to 1000 nM | 1000 to 5000 nM | > 100 nM | C[C@@H]1CN(c2ccnc3[nH]c(-c4cnn(C)c4)nc23)C(=O)[C@]1(C#N)C1CC1 [Example 181, (3R,4S)-3-cyclopropyl-4-methyl-1-(2-(1-methyl-1H-pyrazol-4-yl)-3H-imidazo[4,5-b]pyridin-7-yl)-2-oxopyrrolidine-3-carbonitrile]
20 to 50 nM | 100 to 1000 nM | > 10000 nM | 100 to 1000 nM | 100 to 1000 nM | 5000 to 10000 nM | > 100 nM | C[C@@H]1CN(c2ccnn3cc(-c4cnn(C)c4)nc23)C(=O)[C@]1(C#N)C1CC1 [Example 182, (3R,4S)-3-cyclopropyl-4-methyl-1-(2-(1-methyl-1H-pyrazol-4-yl)imidazo[1,2-b]pyridazin-8-yl)-2-oxopyrrolidine-3-carbonitrile]
< 5 nM | < 100 nM | 1000 to 5000 nM | < 100 nM | 100 to 1000 nM | 1000 to 5000 nM | 50 to 100 nM | C[C@@H]1CN(c2nc(-c3cnn(C)c3)cn3ncc(F)c23)C(=O)[C@]1(C#N)C1CC1 [Example 187, (3R,4S)-3-cyclopropyl-1-(3-fluoro-6-(1-methyl-1H-pyrazol-4-yl)pyrazolo[1,5-a]pyrazin-4-yl)-4-methyl-2-oxopyrrolidine-3-carbonitrile]
< 5 nM | < 100 nM | 1000 to 5000 nM | < 100 nM | 100 to 1000 nM | 1000 to 5000 nM | 50 to 100 nM | C[C@@H]1CN(c2nc(-c3cnn(C(F)F)c3)cn3ncc(F)c23)C(=O)[C@]1(C#N)C1CC1 [Example 189, (3R,4S)-3-cyclopropyl-1-(6-(1-(difluoromethyl)-1H-pyrazol-4-yl)-3-fluoropyrazolo[1,5-a]pyrazin-4-yl)-4-methyl-2-oxopyrrolidine-3-carbonitrile]
< 5 nM | < 100 nM | 1000 to 5000 nM | < 100 nM | < 100 nM | 1000 to 5000 nM | 50 to 100 nM | C[C@@H]1CN(c2nc(-c3cnn([C@H]4CCOC4)c3)cn3ncc(F)c23)C(=O)[C@]1(C#N)C1CC1 [Example 191, (3R,4S)-3-cyclopropyl-1-(3-fluoro-6-(1-((S)-tetrahydrofuran-3-yl)-1H-pyrazol-4-yl)pyrazolo[1,5-a]pyrazin-4-yl)-4-methyl-2-oxopyrrolidine-3-carbonitrile]
5 to 20 nM | < 100 nM | > 10000 nM | < 100 nM | 100 to 1000 nM | 1000 to 5000 nM | > 100 nM | C[C@@H]1CN(c2nc(-c3cnn4c3COCC4)cn3ncc(F)c23)C(=O)[C@]1(C#N)C1CC1 [Example 192, (3R,4S)-3-cyclopropyl-1-(6-(6,7-dihydro-4H-pyrazolo[5,1-c][1,4]oxazin-3-yl)-3-fluoropyrazolo[1,5-a]pyrazin-4-yl)-4-methyl-2-oxopyrrolidine-3-carbonitrile]
